# Patent US20030154499A1, “Mouse unable to express functional alpha-4 integrin protein, and methods for assaying compounds or agents for alpha-4 integrin protein antagonist activity and a genetic marker for evaluating efficacy of modulators of signaling activity of a VLA-4 receptor” (priority 2001, published 2003)
# Key:
# Format in all cases: in vivo
# [1] = test system: M. musculus mRNA for macrophage mannose receptor; assay: Taqman analysis of macrophage mannose receptor mRNA in brain and spleen of treated EAE mice
# Protocol: (§1) In these experiments, EAE (experimental allergic encephalomyelitis) mice were used. The EAE mouse is an animal model for Central Nervous System (CNS) autoimmune disease. It is widely used as a human Multiple Sclerosis (MS) model.
# (§2) EAE mice (see protocol below) vehicle only treated and treated with IVL984 or HMR1031 for 14 days (5 mice per group) were sacrificed by cervical dislocation. The brain was aseptically removed and the RNA was prepared using a standard Trizol (Invitrogen) prep (protocol see below). The prepped RNA was run on an agarose gel to determine the quality of the RNA and quantified by UV spec analysis. Taqman analysis was performed using sequence specific primers and probes (sequence see below).
# (§3) PLP139-151 peptide is dissolved in H2O:PBS (1:1) solution to a concentration 5 mg/10 ml (for 50 ug PLP per mouse) or 7.5 mg/10 ml (for 75 ug PLP per group) and emulsified with an equal volume of CFA supplemented with 40 mg/10 ml heated-killed mycobacterium tuberculosis H37Ra. Mice are injected s.c. with 0.2 ml of peptide emulsion in the abdominal flank (0.1 ml on each side). On the same day and 72 hr later, mice are injected i.v. with 100 μl of 35 ng and 50 ng of Bordetella Pertussis toxin in saline respectively.
# (§4) Treatment IVL984 or HMR1031 or vehicle control only: 0.2% Hydroxypropyl Methylcellulose) started 7 days after immunization, before the first EAE symptoms appeared.
# (§5) EAE mice treated with HMR1031A, 50 mg/kg, q.d., s.c. for 14 days from day 7
# (§6) EAE mice treated with IVL984 50 mg/kg, q.d., s.c. for 14 days from day 7
# Brain was divided into two halves and each half was placed in a steril 1.5 ml tube. 0.5 ml TRIzol was added to each tube and the tissue was homogenized using a hand held tissue homogenizer. After homogenization, another 0.5 ml of TRIzol was added to each tube and the samples were incubated for 5 minutes at room temperature to permit complete dissociation of nucleoprotein complexes.
# 0.2 ml of Chloroform (Sigma) was added to each tube and vortexed. Samples were incubated for an additional 5 minutes at room temperature and then centrifuged at 12,000×g for 15 minutes at 4° C.
# The upper aqueous phase was transferred into a fresh, steril tube and the two sample halves per mouse were combined. 0.5 ml isopropylalcohol was added to each combined sample, vortexed and incubated at room temperature for 10 minutes. The samples were then centrifuged at 12,000×g at 4° C. […]
# (§7) The final pellets were briefly air dried and resuspended in nuclease-free, sterile water. […] The concentration was determined by measuring the absorbance at 260 nm.
# Taqman primers were ordered for Mus musculus mRNA for macrophage mannose receptor (Accession number: Z11974). […] The results were normalized to 18S and expressed as logarithm base 2 of copy number difference with 18S RNA levels. […]
# [2] = test system: JAB or SOCS-1 protein; assay: FACS analysis of SOCS-1 (JAB) protein in spleen cells of treated EAE mice; settings: 50 mg/kg q.d. s.c. for 14 days from day 7, FACS with C- and N-terminal antibodies, vs vehicle
# Excerpt: In these experiments, EAE (experimental allergic encephalomyelitis) mice as well as KO and wt mice of the present invention were used. The EAE mouse is an animal model for Central Nervous System (CNS) autoimmune disease. It is widely used as a human Multiple Sclerosis (MS) model.
# EAE mice (see protocol below) vehicle only treated and treated with IVL984 for 14 days (5 mice per group) as well as 5 alpha-4 integrin KO mice of the present invention and 4 wt mice of the same genetic background were sacrificed by cervical dislocation. The spleen was aseptically removed and placed in a 15 ml centrifuge tube containing RPMI 1640 medium with 1% FCS. The spleens were then individually meshed in a 10 cm petri dish through a sterile wire screen using a sterile rubber policeman (0.23 mm pore size screen, Thomas Scientific). The screen was washed and the cell suspension collected and transferred into a 15 ml centrifuge tube. After centrifugation at 1200 rpm for 10 minutes at 4° C., the supernatant was decanted and the red blood cells lysed with 1 ml/spleen ice-cold red blood cell lysis buffer for 1-3 minutes on ice. The supernatant was then carefully transferred into a fresh 15 ml centrifuge tube, leaving the fat pellet behind. […] The number of alive cells was determined using a hemacytometer (Hauser Scientific) and Trypan Blue (Gibco, Life Technologies) as the dye. […]
# [3] = test system: EST AA571535; assay: Taqman analysis of EST AA571535 in brain and spleen of treated EAE mice
# Protocol: as §1, §2, §3, §4, §5, §6
# (§8) Brain was divided into two halves and each half was placed in a sterile 1.5 ml tube. 0.5 ml TRIzol was added to each tube and the tissue was homogenized using a hand held tissue homogenizer. […]
# as §7
# (§9) Taqman primers were ordered for the EST with the accession number AA571535 (EST AA571535 (sequence for the EST: SEQ ID NO 18). Primers for the real time Taqman PCR studies were chosen using Primer Express software (Perkin Elmer) and synthesized by Sigma Genosys. The sequences of the forward and reverse primers were AGCAGCCATGGGAGGCA (SEQ ID NO: 19) and TCCGTTTCCCCACAGCAC (SEQ ID NO: 20) respectively. PCR product was run on the 4% agarose gel to confirm presence of a single band. PCR reactions were run on ABI Prizm System 7700 sequence detector (Perkin-Elmer) using CybrGreen PCR Core Reagents Kit (Perkin-Elmer) according to the manufacturer's protocol. […] The results were normalized to 18S and expressed as logarithm base 2 of copy number difference with18S RNA levels. […]
# [4] = test system: EST AA154371; assay: Taqman analysis of EST AA154371 in brain and spleen of treated EAE mice
# Protocol: as §1, §2
# as §3, with “respectively. Treatment IVL984 or HMR1031 or vehicle control only: 0.2% Hydroxypropyl Methylcellulose) started 7 days after immunization, before the first EAE symptoms appeared.” for “respectively.”
# as §5, §6, §8, §7
# as §9, with “AA154371” for “AA571535”, “21).” for “18).”, “GACAGGGCTGAGGATTCGG” for “AGCAGCCATGGGAGGCA”, “22)” for “19)”, “TCCGTTTCCCCACAGCAC” left out, “23)” for “20)”
# [5] = EAE mice, 50 mg/kg q.d. s.c. for 14 days from day 7, brain, vs vehicle control
# [6] = EAE mice, 50 mg/kg q.d. s.c. for 14 days from day 7, spleen, vs vehicle control
# [7] = bodily samples of treated EAE mice, tissue not given
smiles,measurement,setting,value
COc1cc(CC(=O)Nc2ccc([C@@H](CC(=O)O)NC(=O)CCCC(=O)O)cc2)ccc1NC(=O)Nc1ccccc1C [IVL 984],"Macrophage mannose receptor, Brain",[1]; [5],"Tendency (The decrease in macrophage mannose receptor mRNA levels is a statistically significant, a probability rate of 5-15%.)"
same,"Macrophage mannose receptor, Spleen",[1]; [6],— (The changes in mRNA levels are statisically significant at a probability rate of higher than 15% (not significant).)
same,macrophage mannose receptor mRNA levels in comparison to vehicle control mice,"[1]; EAE mice, brain samples",statistically significant lower
same,levels of the genetic marker macrophage mannose receptor mRNA,[1]; [7],decreased levels of expression
same,levels of JAB or SOCS-1 protein,[2],decreased levels of expression on the protein level
same,"EST AA 571535, Brain",[3]; [5],— (The changes in mRNA levels are statistically significant at a probability rate of higher than 15% (not significant).)
same,"EST AA 571535, Spleen",[3]; [6],— (The changes in mRNA levels are statistically significant at a probability rate of higher than 15% (not significant).)
same,EST AA571535 mRNA levels in comparison to vehicle control mice,"[3]; EAE mice, brain samples",statistically significant lower
same,levels of the genetic marker EST AA571535,[3]; [7],decreased levels of expression
same,"EST AA 154371, Brain",[4]; [5],✓ (Statistically significant decrease in macrophage mannose receptor mRNA or protein levels with a 5% or lower probability rate in treated mice compared to vehicle control mice.)
same,"EST AA 154371, Spleen",[4]; [6],✓ (Statistically significant decrease in macrophage mannose receptor mRNA or protein levels with a 5% or lower probability rate in treated mice compared to vehicle control mice.)
same,EST AA154371 mRNA levels in comparison to vehicle control mice,"[4]; EAE mice, brain samples",statistically significant lower
same,levels of the genetic marker EST AA154371,[4]; [7],decreased levels of expression
